Test [1] has as its system Candida oleophila strain O. Briefly: Compatibility test on fungicide-amended PDA solid medium (colony count of biocontrol agent). It is filed as cell-based. The settings on record: for Compatibility: Candida oleophila strain O 10^2-10^3 cfu/ml. How it is done: “Compatibility” as used herein the specification, means how well a fungicide mixes with other substances. It's important to know how two formulations interact with other to avoid problems like reduced effectiveness or increased toxicity and herein measured by the unaffected colony count of biocontrol agent upon mixing with chemical fungicides.
The disclosure will be illustrated with reference to the following examples: Compatibility of biocontrol agent: Candida oleophila strain O was tested with various preharvest and post-harvest fungicides to test if they have any negative effect on Candida oleophila strain activity. The dry mass of a single Candida oleophila cell, including strain O, is approximately 47.65 picograms (pg) (48 pg=48×10^−9 mg), which is a typical mass for a single yeast cell.
1 gram of biomass (10^10 cfu/gm) was activated in 100 ml of water for 45 minutes. 1 ml of the biomass suspension was mixed with 99 ml of lactate dilution (2 g calcium lactate diluted in 99 ml water). Biomass solution was further diluted to 100 and 1000 folds and 100 μl of the diluted biomass solution was plated on synthetic fungicide amended PDA (Potato dextrose agar) plates, which yields around 10^3 and 10^2 cfu/plate, respectively, in fully compatible mixtures. Plates were incubated at 23° C. and the growth of CFUs (colony forming units) and total number of Candida oleophila colonies were counted after 5-7 days.
Pesticide amended PDA plates were prepared by inoculating pesticide on a Potato dextrose agar plate at no treatment (control), standard (full dose) and reduced (half dose) depending on the treatments. For e.g., if a pesticide has standard dose concentration of 5 ppm, then plates were prepared at 0 ppm, 2.5 ppm and 5 ppm. with that pesticide.

The test system of test [2] is Penicillium expansum. Briefly: Artificial wound inoculation of Fuji apples, blue mold decay. The test is classed as in vivo. The settings on record: solo at full rate (TBZ 1.45 g/L, PYR 1.35 g/L, FDL 0.85 g/L, C. oleophila 0.33 g/L), control 94. The procedure: (§1) Several lab trials were conducted to test efficacy of Candida oleophila strain O against major post-harvest pathogens of pome (Blue mold: Penicillium expansum, Gray mold: Botrytis cinerea, Bull's eye rot: Neofabraea perennans and Mucor rot and to test synergistic interaction of Candida oleophila strain O with 3 post-harvest fungicides of pome fruits namely Fludioxonil (FDL), Pyrimethanil (PYR) and Thiabendazole (TBZ).
(§2) Candida oleophila strain O was applied solo and in combination with three different post-harvest fungicides at full rate (FR) and half label rate (HR) (for conventional fungicides) to study its compatibility and synergist interaction. Testing was done on artificially/lab inoculated and naturally infected fruits.
(§3) For artificial inoculations through wound, washed fruits were wounded twice at the stem end region and were kept for 30 mins to dry the juice from the wound site. Fruits were fully submerged in fungicide solutions for 1 min and then transferred to a perforated basket to drip dry. Fruits were the transferred to the fruit trays and were left to dry overnight. 5×10^4 fungal spores/mL spore suspension of post-harvest pathogens as indicated above was prepared for inoculation. 50 μL spore suspension was transferred in each wound using a pipette and was left to dry for 1 hr at room temperature. Fruits were stored in cold storage. Fruit decay was monitored periodically, when decay on control fruit was above 80%, the disease incidence and severity was evaluated on all the treatments.

In test [3] the test system is Mucor sp. Briefly: Artificial wound inoculation of Fuji apples, Mucor rot decay. The settings on record: solo at full rate (TBZ 1.45 g/L, PYR 1.35 g/L, FDL 0.85 g/L, C. oleophila 0.33 g/L), control 100. The test is classed as in vivo. How it is done:
as §1, §2, §3

Test [4] relates to Botrytis cinerea. Briefly: Artificial wound inoculation of Fuji apples, gray mold decay. The test is classed as in vivo. The settings on record: solo at full rate (PYR 1.35 g/L, FDL 0.85 g/L, C. oleophila 0.33 g/L), control 47. The procedure:
as §1, §2
as §3, with “50 μL spore suspension was transferred in each wound using a pipette and was left to dry for 1 hr at room temperature. Fruits were stored in cold storage.” left out

Test [5] relates to Neofabraea perennans. Briefly: Artificial wound inoculation of Fuji apples, bull's eye rot decay. The settings on record: solo at full rate (TBZ 1.45 g/L, PYR 1.35 g/L, FDL 0.85 g/L, C. oleophila 0.33 g/L), control 98. It is filed as in vivo. How it is done: as §1, §2, §3
Test [6] deals with Candida oleophila strain O. Briefly: Compatibility test on fungicide-amended PDA solid medium (colony count of biocontrol agent). The test is classed as cell-based. The settings on record: Candida oleophila strain O 10^6 cfu/ml.

SMILES strings stand for the structures.

Experimental findings from US20250248405A1, “COMBINATIONS FOR CONTROLLING POST-HARVEST PATHOGENS IN AGRICULTURAL PRODUCE AND METHOD OF USE THEREOF” (Decco Worldwide Post Harvest Holding BV, priority 2024, published 2025) are described below.

Take `O=C(Nc1ccccc1-c1ccc(Cl)cc1)c1cccnc1Cl` [Boscalid]: in test [1], the “Compatibility of Candida oleophila strain O with the fungicide (text summary of Table 1)” value (shortened to “Compatibility … (text summary of Table 1)”) is reported as “compatible”.

As to `[Cl-].[Cu+2].[Cu+2].[OH-].[OH-].[OH-]` [Copper oxychloride], the “Compatibility … (text summary of Table 1)” value in test [1] is recorded as “compatible”.

As to `O=S(=O)([O-])[O-].[Cu+2]` [Copper sulphate], in test [1], the “Compatibility … (text summary of Table 1)” value is given as “compatible”.

Take `N#Cc1c[nH]cc1-c1cccc2c1OC(F)(F)O2` [Fludioxonil]: the “Decay severity (%) Penicillium sp.” value in test [2] worked out at 0%. In addition, the “Decay severity (%) Mucor sp.” value in test [3] is 100%. The “Compatibility … (text summary of Table 1)” value in test [1] was “compatible”. Further, in test [4], the “Decay severity (%) Botrytis sp.” value stood at 2%. In test [5], the “Decay severity (%) Neofabrea sp.” value is 83%.

Consider `Cn1cc(C(=O)Nc2ccccc2-c2cc(F)c(F)c(F)c2)c(C(F)F)n1` [Fluxapyroxad], for which the “Compatibility … (text summary of Table 1)” value in test [1] is “compatible”. Further, the Compatibility entry is “YES” in test [1] (fungicide 300 g/L a.i., tested dosage 0.5-2 ppm) and “YES” in test [1] (fungicide 300 g/L a.i., tested dosage 0.9 ppm).

In the case of `COC(=O)N(OC)c1ccccc1COc1ccn(-c2ccc(Cl)cc2)n1` [Pyraclostrobin], in test [1], the “Compatibility … (text summary of Table 1)” value is listed as “compatible”. Further, the Compatibility result in test [1] (fungicide 250 g/L a.i., tested dosage 2-8 ppm) is listed as “YES”.

Consider `Cc1cc(C)nc(Nc2ccccc2)n1` [Pyrimethanil], for which the “Decay severity (%) Penicillium sp.” value in test [2] stood at 7%. In addition, the “Decay severity (%) Mucor sp.” value in test [3] was 100%. Further, the “Compatibility … (text summary of Table 1)” value in test [1] is listed as “compatible”. Moreover, in test [4], the “Decay severity (%) Botrytis sp.” value was 7%. Also, in test [6] (fungicide 600 g/L a.i., tested dosage 800 ppm), the Compatibility result is given as “YES”. Also, the “Decay severity (%) Neofabrea sp.” value in test [5] is 70%.

Take `c1ccc2[nH]c(-c3cscn3)nc2c1` [Thiabendazole]: in test [2], the “Decay severity (%) Penicillium sp.” value is 4%. In test [3], the “Decay severity (%) Mucor sp.” value came to 100%. For the same molecule, the “Compatibility … (text summary of Table 1)” value in test [1] is listed as “compatible”. The Compatibility result in test [6] (fungicide 500 g/L a.i., tested dosage 200 ppm) is given as “YES”. Besides, the “Decay severity (%) Neofabrea sp.” value in test [5] came to 22%.

Take `COC(=O)NC(=S)Nc1ccccc1NC(=S)NC(=O)OC` [Thiophanate-methyl]: the “Compatibility … (text summary of Table 1)” value in test [1] is given as “compatible”.
